Consider 33 molecules from ChEMBL document CHEMBL1201862, “PubChem BioAssay data set” (2004).

Each structure is given as a SMILES string.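 96-well plates; 48 h exposure; 5 concentrations. Endpoints by linear interpolation between flanking doses. Not reached: highest tested concentration assigned. At the GI50, growth is halved.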 Activity calls are given as the source filed them. Rule as the data show it: active = GI50 up to about 1.1 µM and inactive = higher. Non-standard residues stand in square brackets, D forms with d. Residues, ends and D or L forms follow the SMILES beside them. ξ: configuration not given here. Pentanoyl(2-O,4-OH,5-Cl) = O=C(O)C(O)CC(O)CCl; Ile(3ξ) = CCC(C)[C@H](N)C(=O)O; NMeV = CN[C@H](C(=O)O)C(C)C; NMeA = CN[C@@H](C)C(=O)O; βAla = NCCC(=O)O Where only a bound is given, the exact number is not on record here.

Among the test systems are MDA-MB-231; MDA-MB-435; MDA-N; SR; DMS-114; KM-20L2; BT-549; LXFL 529; RXF 631.
Assay in all cases: NCI tumour cell line growth inhibition, 48 h

Consider `O=C/C(=C1/C=Cc2cc([N+](=O)[O-])ccc2S1)c1ccccc1`, for which the GI50 in the assay with MDA-MB-231, in the assay on MDA-MB-435, in the assay on MDA-N and in the assay with SR was > 100 µM (inactive) throughout.
In the case of `CSc1ncnc2c1ncn2CCC#N`, the GI50 in the assay on MDA-MB-231, in the assay with MDA-MB-435, in the assay on MDA-N and with SR was > 100 µM (inactive) throughout.
On to `CCOC(=O)C(=Cn1c(=S)[nH]c2ccc([N+](=O)[O-])cc21)C(=O)OCC`, for which the GI50 in the assay on MDA-MB-231, in the assay with MDA-MB-435, with MDA-N and with SR was > 100 µM (inactive) in each case.
For the molecule `Cc1ccc(C#CS(=O)(=O)C(F)(F)F)cc1`, the GI50 with DMS-114 and in the assay with KM-20L2 was > 100 µM (inactive) in each case.
With `CC1=NN(C(=O)c2ccccc2O)C(=O)/C1=C/c1c(O)ccc2ccccc12`, the GI50 is 4.7 µM (inactive) with BT-549; 0.219 µM (active) in the assay on DMS-114; 4.59 µM (inactive) with KM-20L2; 1.72 µM (inactive) in the assay with LXFL 529; 3.97 µM (inactive) with MDA-MB-231; 4.94 µM (inactive) with MDA-MB-435. Also, the GI50 is 5.2 µM (inactive) in the assay on MDA-N and 0.364 µM (active) in the assay on SR.
As to `Cc1ccc(NC(=O)/C(=N/N(C)C)C(C2OC(=O)c3ccccc32)[N+](=O)[O-])cc1` (stereo not drawn), the GI50 in the assay with BT-549, in the assay with MDA-MB-231, with MDA-MB-435 and in the assay with MDA-N was > 100 µM (inactive) in each case.
For the molecule `CSc1nc(NC2OC(COC(C)=O)C(OC(C)=O)C(OC(C)=O)C2OC(C)=O)c2c(OC(C)=O)c(C)c(=O)oc2n1` (stereo not drawn), the GI50 in the assay with DMS-114, in the assay on KM-20L2 and with LXFL 529 was > 100 µM (inactive) in each case.
`COc1ccc2[nH]c3c(C)c4ccncc4c(C)c3c2c1`: the GI50 in the assay on DMS-114 is 0.446 µM (active); in the assay with KM-20L2 it was 0.169 µM (active).
On to `Cc1c(Cl)c(=O)oc2cc(OCC(=O)c3ccccc3)ccc12`, for which the GI50 in the assay on BT-549 was > 100 µM (inactive); in the assay with MDA-MB-231, 29.4 µM (inactive); with MDA-MB-435, > 100 µM (inactive); in the assay on MDA-N, > 100 µM (inactive); in the assay on SR, 2.7 µM (inactive).
With `COc1ccc(C2c3cc4c(cc3OC(NCCO)C2C)OCO4)cc1` (stereo not drawn), the GI50 in the assay on BT-549 was 16.7 µM (inactive); in the assay with MDA-MB-231, 26.9 µM (inactive); in the assay with MDA-MB-435 it was 23.6 µM (inactive); with MDA-N it was 18.2 µM (inactive); in the assay with SR, 19 µM (inactive).
As for `O=[N+]([O-])c1cccc2nccc(NCC(O)CO)c12` (stereo not drawn), the GI50 with BT-549 was 14.2 µM (inactive); in the assay with MDA-MB-231, 11.5 µM (inactive); in the assay with MDA-MB-435 it was 16.6 µM (inactive); in the assay with MDA-N, 17.1 µM (inactive); with SR, 5.06 µM (inactive).
In the case of `COC1C(O)C(n2ncc3c(SC)nc(SC)nc32)OC1C(O)CO` (stereo not drawn), the GI50 in the assay with DMS-114 and in the assay on KM-20L2 was > 100 µM (inactive) in each case.
Consider `CN(C)CCCNC(=O)N/N=C/c1ccccc1`, for which, in the assay on DMS-114, the GI50 is > 100 µM (inactive).
Take `Nc1ccc(N(S(=O)(=O)c2ccccc2)S(=O)(=O)c2ccccc2)c(Cl)c1`: the GI50 with BT-549 was 56.5 µM (inactive); in the assay on MDA-MB-231, 98.2 µM (inactive); in the assay on MDA-MB-435, 15.1 µM (inactive); with MDA-N it was 28.9 µM (inactive); with SR it was 57.3 µM (inactive).
Regarding `c1ccc2c(c1)NCc1cc3ccccc3nc1O2`, the GI50 with DMS-114 was 99.5 µM (inactive).
As to `CCC(C)[C@@H]1NC(=O)[C@@H]2CCCN2C(=O)C(CC(O)CCl)OC(=O)CCNC(=O)[C@H](C)N(C)C(=O)[C@H](C(C)C)N(C)C1=O` (stereo partly drawn) (cyclo([Ile(3ξ)][NMeV][NMeA][βAla][Pentanoyl(2-O,4-OH,5-Cl)]P)), the GI50 was > 100 µM (inactive) with BT-549; > 47.5 µM (inactive) in the assay on MDA-MB-231; > 100 µM (inactive) with MDA-MB-435; > 100 µM (inactive) with MDA-N; 0.361 µM (active) in the assay with SR.
For `Cc1ccc(S(=O)(=O)N(C=O)N=C2CCN(Cc3ccccc3)CC2)cc1`, the GI50 with KM-20L2, in the assay with LXFL 529, in the assay with RXF 631 and in the assay with SR was > 100 µM (inactive) throughout.
Take `O=C1NC(=O)C(CCO)(c2ccccc2)C(=O)N1`: the GI50 in the assay on DMS-114 and in the assay with KM-20L2 was > 100 µM (inactive) throughout.
For the molecule `N#CCCC(CCC#N)(CCC#N)NO`, the GI50 in the assay on BT-549, with MDA-MB-231, with MDA-MB-435, with MDA-N and with SR was > 100 µM (inactive) throughout.
As to `CC(C)CC(N)C(=O)NC(CNC(CCC(N)=O)C(=O)NC(CC(C)C)C(=O)NC(CC(C)C)C(=O)O)Cc1ccc2ccccc2c1` (stereo not drawn), the GI50 in the assay with BT-549, in the assay on MDA-MB-231, in the assay on MDA-MB-435, in the assay with MDA-N and in the assay on SR was > 10 µM (inactive) throughout.
For the molecule `C[C@]12CC/C(=N\O)C=C1CC[C@@H]1[C@@H]2CC[C@]2(C)C(=N/O)/C(=C/c3cccnc3)C[C@@H]12`, the GI50 is 12.6 µM (inactive) in the assay with BT-549, 17.7 µM (inactive) in the assay on MDA-MB-231, 15.9 µM (inactive) in the assay with MDA-MB-435 and 12.5 µM (inactive) in the assay on MDA-N.
On to `COc1ccc(/C=C2\C(=O)N(C(=O)c3ccc(NC(C)=O)cc3)N=C2C)cc1`, for which the GI50 in the assay on DMS-114 and in the assay with SR was > 100 µM (inactive) each time.
On to `C=CCOCCC(CC=C)C(=O)CC(=O)OC` (stereo not drawn), for which the values for the GI50 in the assay on KM-20L2 and in the assay with SR were > 100 µM (inactive) and 3.56 µM (inactive), respectively.
Turning to `CCOC(=O)c1c[nH]c2cc3c(cc2c1=O)CCS3(=O)=O.CCOC(=O)c1c[nH]c2ccc3c(c2c1=O)S(=O)(=O)CC3`, the GI50 in the assay with DMS-114 and with KM-20L2 was > 100 µM (inactive) each time.
Turning to `Nc1ccccc1S(=O)(=O)c1ccccc1`, the GI50 in the assay on DMS-114, in the assay on KM-20L2, in the assay on LXFL 529, in the assay with RXF 631 and in the assay with SR was > 100 µM (inactive) each time.
As to `CN(C)C(C1=C(O)C(c2ccccc2)N(c2ccccc2)C1=O)N1CCOCC1` (stereo not drawn), the GI50 in the assay on BT-549, in the assay on MDA-MB-231, in the assay on MDA-MB-435 and in the assay with MDA-N was > 10 µM (inactive) each time.
On to `O=c1c(-c2ccccc2)c2oc(c1-c1ccccc1)CS(=O)(=O)CCC2`, for which the GI50 in the assay with DMS-114 is 39.5 µM (inactive); with LXFL 529 it was 17.7 µM (inactive); in the assay with SR, 23.3 µM (inactive).
In the case of `N#CC1=C(O)NC(O)=C(C#N)C1c1c(Cl)cccc1Cl`, the values for the GI50 in the assay on DMS-114, with KM-20L2 and in the assay on SR were 18.8 µM (inactive), 34.8 µM (inactive) and > 100 µM (inactive), respectively.
For `Oc1c(Br)ccc2cccnc12`, the GI50 in the assay on BT-549 is 7.48 µM (inactive); in the assay on MDA-MB-231, 1.87 µM (inactive); with MDA-MB-435, 7.5 µM (inactive); with MDA-N, > 19.8 µM (inactive); in the assay on SR, 0.944 µM (active).
As for `O=C1CCCCC2N(C(c3ccccc3)c3ccccc3)CC[C@@]12c1ccccc1.O=C1CCCC[C@H]2N(C(c3ccccc3)c3ccccc3)CC[C@@]12c1ccccc1` (stereo partly drawn), the values for the GI50 in the assay with DMS-114, in the assay with KM-20L2 and in the assay on RXF 631 were 5.19 µM (inactive), > 10 µM (inactive) and 3.88 µM (inactive), respectively.
As to `Cc1nn(C)c2c1C(=O)N(C)CC(=O)N2C`, the GI50 with BT-549, with MDA-MB-435, in the assay on MDA-N and with SR was > 100 µM (inactive) each time.
For the molecule `N#Cc1c(NC(=S)NC(=O)c2ccccc2)nc2c(c1-c1ccccc1)CCCC2`, the GI50 is 30.5 µM (inactive) with BT-549; 93.8 µM (inactive) with MDA-MB-231; > 100 µM (inactive) in the assay on MDA-MB-435; > 100 µM (inactive) with MDA-N; > 100 µM (inactive) with SR.
Turning to `CN(C)c1ccc(C2CC(=O)CC(c3ccc(N(C)C)cc3)C23C(=O)NC(=O)NC3=O)cc1` (stereo not drawn), the GI50 was 23 µM (inactive) with BT-549; > 25 µM (inactive) in the assay with MDA-MB-231; > 25 µM (inactive) in the assay with MDA-MB-435; > 25 µM (inactive) with MDA-N; > 25 µM (inactive) with SR.
